Converted amounts (≈) assume the structure as drawn. Positions of bridges follow the written chain, without caps; N, C: chain ends. Non-standard residues stand in square brackets, D forms with d. Residues, ends and D or L forms follow the SMILES beside them. Groups on a side chain read outwards from the residue. *: point of attachment. Palmitoyl(16-(5-tetrazolyl)) = O=C(CCCCCCCCCCCCCCCc1nnn[nH]1)*; Lys(CH2CO2H)2 = N[C@@H](CCCCN(CC(=O)O)CC(=O)O)C(=O)O; X1 = O=C(O)CCCCCCCCCCCCCCCCC(=O)NCCOCCOCCN*; C17 diacid = O=C(O)CCCCCCCCCCCCCCCC(=O)*; C16 diacid = O=C(O)CCCCCCCCCCCCCCC(=O)*; Hyp = O=C(O)[C@@H]1C[C@@H](O)CN1; NTA = O=C(O)CN(CC(=O)O)CC(=O)*; hCys = N[C@@H](CCS)C(=O)O; Orn = NCCC[C@H](N)C(=O)O; Dap = NC[C@H](N)C(=O)O; AEEA = NCCOCCOCC(=O)O
Legend:
physchem = experiment: physchem
Description: From a stock solution in vehicle, either H2O or 10 mM phosphate, containing 1 mg (as weighed) compound per ml, 8-11 aliquots are withdrawn and pH-adjusted individually with HCl/NaOH, to cover the whole pH range.

MC1 receptor = MC1 receptor (Homo sapiens, UniProt Q01726); experiment: biochemical
Chain of MC1 receptor (Q01726 whole entry): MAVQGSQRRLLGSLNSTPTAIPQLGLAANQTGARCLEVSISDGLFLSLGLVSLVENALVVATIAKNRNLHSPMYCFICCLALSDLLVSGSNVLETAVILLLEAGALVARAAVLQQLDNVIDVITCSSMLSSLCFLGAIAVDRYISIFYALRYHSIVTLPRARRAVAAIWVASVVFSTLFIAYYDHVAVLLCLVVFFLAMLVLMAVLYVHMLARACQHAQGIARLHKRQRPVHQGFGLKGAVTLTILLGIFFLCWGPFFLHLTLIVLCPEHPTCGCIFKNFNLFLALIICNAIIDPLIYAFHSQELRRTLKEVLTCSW
How it was run: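 Compounds competed against 125I-NDP-α-MSH (22 pM final) for binding to stably MC1-expressing BHK cell membranes, 30 °C for 90 min in HEPES pH 7.4 buffer with 0.1% HSA or ovalbumin. Bound ligand collected by filtration and counted; binding curves analysed by non-linear regression.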

[1] = pH 7.4, Solubility Conc., pH 7.4, vehicle 10 mM phosphate
[2] = pH 7.5, Solubility Conc., pH 7.5, vehicle 10 mM phosphate
[3] = pH 7.7, Solubility Conc., pH 7.7, vehicle 10 mM phosphate

## CC(=O)N[C@H]1CCCCNC(=O)C[C@@H](C(=O)N2CCC[C@H]2C(=O)N[C@@H](CO)C(=O)N[C@@H](CO)C(=O)N[C@@H](CO)C(=O)N[C@@H](CCCCN(CC(=O)O)CC(=O)O)C(=O)N[C@@H](CO)C(=O)N[C@@H](CO)C(=O)NCCOCCOCCNC(=O)CCCCCCCCCCCCCCCCC(=O)O)NC(=O)[C@H](Cc2c[nH]c3ccccc23)NC(=O)[C@H](CCCNC(=N)N)NC(=O)[C@@H](Cc2ccccc2)NC(=O)[C@H](Cc2c[nH]cn2)NC1=O [Example 53, Ac-c[Lys-His-D-Phe-Arg-Trp-Asp]-Pro-Ser-Ser-Ser-Lys(biscarboxymethyl)-Ser-Ser-NH(2-{2-[2-(17-carboxyheptadecanoylamino)ethoxy]ethoxy}ethyl)] (Ac-KH[dF]RWDPSSS[Lys(CH2CO2H)2]SS-X1; lactam 1-6)
physchem; pH 6.6, Solubility Conc., pH 6.6, vehicle 10 mM phosphate
  solubility: 82 µM (≈ 173 µg/mL)
physchem; pH 6.9, Solubility Conc., pH 6.9, vehicle 10 mM phosphate
  solubility: 159 µM (≈ 336 µg/mL)
physchem; pH 7.2, Solubility Conc., pH 7.2, vehicle 10 mM phosphate
  solubility: 337 µM (≈ 713 µg/mL)
physchem; pH 7.3, Solubility Conc., pH 7.3, vehicle 10 mM phosphate
  solubility: 396 µM (≈ 838 µg/mL)
physchem; [1]
  solubility: 410 µM (≈ 867 µg/mL)
physchem; [2]
  solubility: 385 µM (≈ 814 µg/mL)
physchem; [3]
  solubility: 393 µM (≈ 831 µg/mL)
physchem; pH 7.9, Solubility Conc., pH 7.9, vehicle 10 mM phosphate
  solubility: 425 µM (≈ 899 µg/mL)
physchem; pH 8.2, Solubility Conc., pH 8.2, vehicle 10 mM phosphate
  solubility: 403 µM (≈ 853 µg/mL)
MC1 receptor
  Ki: > 10 µM

## CC(=O)N[C@H]1CCCNC(=O)CC[C@@H](C(=O)N2CCC[C@H]2C(=O)N[C@@H](CO)C(=O)N[C@@H](CO)C(=O)N[C@@H](CO)C(=O)N[C@@H](CCCCN(CC(=O)O)CC(=O)O)C(=O)N[C@@H](CO)C(=O)N[C@@H](CO)C(=O)N[C@@H](CCCCNC(=O)COCCOCCNC(=O)CCCCCCCCCCCCCCCC(=O)O)C(N)=O)NC(=O)[C@H](Cc2c[nH]c3ccccc23)NC(=O)[C@H](CCCNC(=N)N)NC(=O)[C@@H](Cc2ccccc2)NC(=O)[C@H](Cc2c[nH]cn2)NC1=O [Example 57, Ac-c[Orn-His-D-Phe-Arg-Trp-Glu]-Pro-Ser-Ser-Ser-Lys(biscarboxymethyl)-Ser-Ser-Lys({2-[2-(16-carboxyhexadecanoylamino)ethoxy]ethoxy}acetyl)-NH2] (Ac-[Orn]H[dF]RWEPSSS[Lys(CH2CO2H)2]SSK([AEEA-C17 diacid])-NH2; lactam 1-6)
physchem; pH 6.8, Solubility Conc., pH 6.8, vehicle 10 mM phosphate
  solubility: 47 µM (≈ 105 µg/mL)
physchem; pH 7.1, Solubility Conc., pH 7.1, vehicle 10 mM phosphate
  solubility: 79 µM (≈ 177 µg/mL)
physchem; [1]
  solubility: 169 µM (≈ 379 µg/mL)
physchem; [2]
  solubility: 395 µM (≈ 886 µg/mL)
physchem; pH 7.5, vehicle 10 mM phosphate
  Solubility Conc.: 284 µM (≈ 637 µg/mL)
physchem; pH 7.6, Solubility Conc., pH 7.6, vehicle 10 mM phosphate
  solubility: 521 µM (≈ 1170 µg/mL)
physchem; [3]
  solubility: 408 µM (≈ 915 µg/mL)
physchem; pH 7.8, Solubility Conc., pH 7.8, vehicle 10 mM phosphate
  solubility: 524 µM (≈ 1180 µg/mL)
physchem; pH 8, Solubility Conc., pH 8.0, vehicle 10 mM phosphate
  solubility: 392 µM (≈ 879 µg/mL)
MC1 receptor
  Ki: > 10 µM

## CC(=O)N[C@H]1CSSC[C@@H](C(=O)N2CCC[C@H]2C(=O)N2CCC[C@H]2C(=O)N[C@@H](CCCCN)C(=O)N[C@@H](CCC(=O)O)C(=O)N[C@@H](CCCCN(CC(=O)O)CC(=O)O)C(=O)N[C@@H](CCCCNC(=O)COCCOCCNC(=O)CCCCCCCCCCCCCCCc2nnn[nH]2)C(N)=O)NC(=O)[C@H](Cc2c[nH]c3ccccc23)NC(=O)[C@H](CCCNC(=N)N)NC(=O)[C@@H](Cc2ccccc2)NC(=O)[C@H](Cc2c[nH]cn2)NC(=O)[C@H](CCC(=O)O)NC1=O [Example 63, Ac-c[Cys-Glu-His-D-Phe-Arg-Trp-Cys]-Pro-Pro-Lys-Glu-Lys(biscarboxymethyl)-Lys[(2-{2-[16-(tetrazol-5-yl)hexadecanoylamino]ethoxy}ethoxy)acetyl]-NH2] (Ac-CEH[dF]RWCPPKE[Lys(CH2CO2H)2]K([AEEA-Palmitoyl(16-(5-tetrazolyl))])-NH2; disulfide 1-7)
physchem; pH 3.8, Solubility Conc.
  solubility: 33 µM (≈ 75.7 µg/mL)
physchem; pH 4.2, Solubility Conc.
  solubility: 23 µM (≈ 52.8 µg/mL)
physchem; pH 4.6, Solubility Conc.
  solubility: 28 µM (≈ 64.3 µg/mL)
physchem; pH 5.1, Solubility Conc.
  solubility: 78 µM (≈ 179 µg/mL)
physchem; pH 6, Solubility Conc.
  solubility: 484 µM (≈ 1110 µg/mL)
physchem; pH 7.9, Solubility Conc.
  solubility: 451 µM (≈ 1030 µg/mL)
physchem; pH 8.1, Solubility Conc.
  solubility: 417 µM (≈ 957 µg/mL)
physchem; pH 8.5, Solubility Conc.
  solubility: 495 µM (≈ 1140 µg/mL)
physchem; pH 8.9, Solubility Conc.
  solubility: 465 µM (≈ 1070 µg/mL)
MC1 receptor
  Ki: > 10 µM

## CC(=O)N[C@H]1CCSSC[C@@H](C(=O)N2CCC[C@H]2C(=O)N2CCC[C@H]2C(=O)N[C@@H](CCCCN)C(=O)N[C@@H](CC(=O)O)C(=O)N[C@@H](CNC(=O)CN(CC(=O)O)CC(=O)O)C(=O)N[C@@H](CCCCNC(=O)COCCOCCNC(=O)CCCCCCCCCCCCCCCc2nnn[nH]2)C(N)=O)NC(=O)[C@H](Cc2c[nH]c3ccccc23)NC(=O)[C@H](CCCNC(=N)N)NC(=O)[C@@H](Cc2ccccc2)NC(=O)[C@H](CCC(N)=O)NC1=O [Example 66, Ac-c[homoCys-Gln-D-Phe-Arg-Trp-Cys]-Pro-Pro-Lys-Asp-Dap(BCMA)-Lys[(2-{2-[16-(tetrazol-5-yl)hexadecanoylamino]ethoxy}ethoxy)acetyl]-NH2] (Ac-[hCys]Q[dF]RWCPPKD[Dap](NTA)K([AEEA-Palmitoyl(16-(5-tetrazolyl))])-NH2; disulfide 1-6)
physchem; pH 4.8, Solubility Conc.
  solubility: 38 µM (≈ 82.5 µg/mL)
physchem; pH 6.4, Solubility Conc.
  solubility: 390 µM (≈ 847 µg/mL)
physchem; pH 6.5, Solubility Conc.
  solubility: 474 µM (≈ 1030 µg/mL)
physchem; pH 6.7, Solubility Conc.
  solubility: 447 µM (≈ 971 µg/mL)
physchem; pH 6.9, Solubility Conc.
  solubility: 455 µM (≈ 988 µg/mL)
physchem; pH 7.2, Solubility Conc.
  solubility: 461 µM (≈ 1000 µg/mL)
physchem; pH 7.4, Solubility Conc.
  solubility: 478 µM (≈ 1040 µg/mL)
physchem; pH 7.6, Solubility Conc.
  solubility: 507 µM (≈ 1100 µg/mL)
physchem; pH 8.1, Solubility Conc.
  solubility: 499 µM (≈ 1080 µg/mL)
MC1 receptor
  Ki: > 10 µM

## CC(=O)N[C@H]1CCSSC[C@@H](C(=O)N2CCC[C@H]2C(=O)N2CCC[C@H]2C(=O)N[C@@H](CCCCN)C(=O)N[C@@H](CC(=O)O)C(=O)N[C@@H](CNC(=O)CN(CC(=O)O)CC(=O)O)C(=O)N[C@@H](CCCCNC(=O)COCCOCCNC(=O)CCCCCCCCCCCCCCCc2nnn[nH]2)C(N)=O)NC(=O)[C@H](Cc2c[nH]c3ccccc23)NC(=O)[C@H](CCCNC(=N)N)NC(=O)[C@@H](Cc2ccccc2)NC(=O)[C@@H]2C[C@@H](O)CN2C1=O [Example 67, Ac-c[homoCys-Hyp-D-Phe-Arg-Trp-Cys]-Pro-Pro-Lys-Asp-Dap(BCMA)-Lys[(2-{2-[16-(tetrazol-5-yl)hexadecanoylamino]ethoxy}ethoxy)acetyl]-NH2] (Ac-[hCys][Hyp][dF]RWCPPKD[Dap](NTA)K([AEEA-Palmitoyl(16-(5-tetrazolyl))])-NH2; disulfide 1-6)
physchem; pH 3.3, Solubility Conc.
  solubility: 600 µM (≈ 1290 µg/mL)
physchem; pH 3.4, Solubility Conc.
  solubility: 420 µM (≈ 906 µg/mL)
physchem; pH 3.6, Solubility Conc.
  solubility: 250 µM (≈ 539 µg/mL)
physchem; pH 4.1, Solubility Conc.
  solubility: 37 µM (≈ 79.8 µg/mL)
physchem; pH 5.4, Solubility Conc.
  solubility: 38 µM (≈ 81.9 µg/mL)
physchem; pH 5.9, Solubility Conc.
  solubility: 207 µM (≈ 446 µg/mL)
physchem; pH 6.3, Solubility Conc.
  solubility: 482 µM (≈ 1040 µg/mL)
physchem; pH 6.4, Solubility Conc.
  solubility: 533 µM (≈ 1150 µg/mL)
physchem; pH 6.8, Solubility Conc.
  solubility: 587 µM (≈ 1270 µg/mL)
physchem; pH 7.3, Solubility Conc.
  solubility: 590 µM (≈ 1270 µg/mL)
MC1 receptor
  Ki: > 10 µM

## CC(=O)N[C@H]1CCSSC[C@@H](C(=O)N2CCC[C@H]2C(=O)N2CCC[C@H]2C(=O)N[C@@H](CO)C(=O)N[C@@H](CCC(=O)O)C(=O)N[C@@H](CCCCN(CC(=O)O)CC(=O)O)C(=O)N[C@@H](CCCCNC(=O)COCCOCCNC(=O)CCCCCCCCCCCCCCC(=O)O)C(N)=O)NC(=O)[C@H](Cc2c[nH]c3ccccc23)NC(=O)[C@H](CCCNC(=N)N)NC(=O)[C@@H](Cc2ccccc2)NC(=O)[C@H](Cc2c[nH]cn2)NC1=O [Example 70, Ac-c[homoCys-His-D-Phe-Arg-Trp-Cys]-Pro-Pro-Ser-Glu-Lys(biscarboxymethyl)-Lys({2-[2-(15-carboxypentadecanoylamino)ethoxy]ethoxy}acetyl)-NH2] (Ac-[hCys]H[dF]RWCPPSE[Lys(CH2CO2H)2]K([AEEA-C16 diacid])-NH2; disulfide 1-6)
physchem; pH 3.4, Solubility Conc.
  solubility: 190 µM (≈ 399 µg/mL)
physchem; pH 3.9, Solubility Conc.
  solubility: 65 µM (≈ 137 µg/mL)
physchem; pH 4.4, Solubility Conc.
  solubility: 40 µM (≈ 84 µg/mL)
physchem; pH 5.5, Solubility Conc.
  solubility: 59 µM (≈ 124 µg/mL)
physchem; pH 5.6, Solubility Conc.
  solubility: 142 µM (≈ 298 µg/mL)
physchem; pH 5.8, Solubility Conc.
  solubility: 210 µM (≈ 441 µg/mL)
physchem; pH 6.1, Solubility Conc.
  solubility: 429 µM (≈ 901 µg/mL)
physchem; pH 7.5, Solubility Conc.
  solubility: 444 µM (≈ 933 µg/mL)
physchem; pH 7.8, Solubility Conc.
  solubility: 463 µM (≈ 973 µg/mL)
physchem; pH 8, Solubility Conc.
  solubility: 440 µM (≈ 924 µg/mL)
MC1 receptor
  Ki: > 10 µM

— patent publication US20130012432A1, “Peptides for Treatment of Obesity” (Novo Nordisk A/S, priority 2010, published 2013)
